According to patent publication US8653026B2, “Treatment of type 2 diabetes with FTY720” (Diapin Therapeutics LLC, priority 2011, dated 2014):

Assays:
[1] = Body weight of db/db mice with or without oral FTY720; format: in vivo, mouse; conditions: FTY720-treated vs untreated group
Protocol: FIG. 2B. Time course of the body weight of db/db mice with or without oral FTY720. Open circle (∘), FTY720-untreated group; solid circle (●), pre-diabetic db/db mice (Fasting glucose<126 mg/dL) at six-week-old treated with 10 mg/kg FTY720. […]
Animals and Procedures—Five-week-old female db/db mice (BKS.Cg-m+/−Leprdb) were purchased from Jackson Laboratories (Bar Harbor, Me.). […] After 1 week, the fasting glucose levels of the 6-week-old mice were measured. […] Mice in the FTY720-treated group were fed 10 mg/kg of FTY720 daily by feeding tube and their food intake and body weight were measured twice a week. Fasting glucose levels were measured at the end of each week. […] After metabolic analysis, the pancreases were removed from the mice at 13 and 16 weeks of age for immunohistochemical analysis, quantitation of islet area, or islet isolation.

[2] = tested on: isolated pancreatic islets; test: Glucose-stimulated insulin secretion by isolated normal islets ex vivo; format: cell-based, mouse; conditions: islets from 8 weeks old normal C57/BL6 mice, 0.2 μM FTY720, 24 hours
Protocol: Islets were isolated from 8 weeks old normal C57/BL6 mice and treated with or without 0.2 μM FTY720 in the culture medium without FBA for 24 hours. Then the islets were stimulated with glucose and secreted insulin was measured using an Ultra Sensitive Mouse Insulin ELISA Kit (Crystal Chem Inc., Downers Grove, Ill.) and total proteins of islets were measured.

[3] = tested on: Bcl-2; test: Bcl-2 mRNA levels in islets of db/db mice; format: in vivo, mouse; conditions: islets from FTY720-treated db/db mice vs untreated
Protocol: FIG. 10A. Levels of Bcl-2 mRNA levels of the db/db mice with (+FTY720) or without FTY720 (−FTY720) treatment. *p=0.0006
(§1) Islets were isolated from pancreases removed from the 13-week-old untreated and FTY720-treated db/db mice by Liberase (Roche Diagnostics) digestion, followed by discontinuous Ficoll gradient separation and manual stereomicroscopic selection to exclude contaminating tissues (30). Isolated islets (or INS-1 cells) were cultured in the medium (composed of RPMI 1640 medium supplemented with 10% fetal bovine serum, 2 mM L-glutamine, 1% sodium pyruvate, 50 μM β-mercaptoethanol, 100 units/ml of penicillin, and 100 μg/ml of streptomycin). For treatment of INS-1 cells, the cells were plated in RPMI medium overnight and changed to Hanks' balanced salt solution containing 2 mM glucose and 0.5% FBS overnight. Then the cells were treated with various conditions in the same medium for 24 hours.
(§2) To determine the mechanism of action (MOA) behind the increase in beta-cell mass observed in the treated mice, beta-cell survival was examined.

[4] = tested on: Bcl-xL; test: Bcl-xL mRNA levels in islets of db/db mice; format: in vivo, mouse; conditions: islets from FTY720-treated db/db mice vs untreated
Protocol: FIG. 10B. Levels of Bcl-xL mRNA levels of the db/db mice with (+FTY720) or without FTY720 (−FTY720) treatment. *p=0.002
as §1, §2

[5] = tested on: beta-cell; test: In vivo BrdU incorporation (beta-cell regeneration) in pancreas; set-up: species or system mouse
Protocol: FIG. 11. BrdU staining in the pancreatic islets after 6 weeks FTY720 treatment. After overnight fasting, the mice were given 1 mg/ml 5-bromo-2′deoxyuridine (BrdU) intraperitoneally. 24 hours later, mice were sacrificed for BrdU staining of pancreas sections. Positive BrdU staining indicates cell proliferation.
FIG. 12. BrdU staining in the duct areas of the pancreas. After 6 weeks FTY720 treatment, overnight fasted mice were given 1 mg/ml 5-bromo-2′deoxyuridine (BrdU) intraperitoneally. 24 hours later, mice were sacrificed for BrdU staining of pancreas sections.
FIG. 13. Insulin immunostaining in newly formed insulin containing cells and islets near duct (arrow) in the FTY720-treated db/db mice (Scale bar, 100 μm).
After overnight fasting, the mice were given 1 mg/ml of 5-bromo-2-deoxyuridine (BrdU) in PBS intraperitoneally. Mice were sacrificed 24 hours after BrdU injection and pancreases were removed and fixed with a 4% formaldehyde solution. The pancreases were then embedded in paraffin and sliced into 10 μm sections. Tissue sections were stained with the anti-BrdU monoclonal antibody provided in BrdU in Situ Detection Kit (BD Biosciences).

[6] = tested on: PDX-1; test: PDX-1 expression in isolated islets from db/db mice; format: in vivo, mouse; conditions: islets from FTY720-treated db/db mice
Protocol: FIG. 14. PDX-1 expression in the isolated islets from the db/db mice with (+FTY720) or without FTY720 (−FTY720) treatment (*p=0.0006).
as §1
Expression of pancreatic and duodenal homeobox 1 (PDX-1), a transcription factor, is required for pancreatic development and β-cell maturation.

[7] = tested on: S1P3; test: S1P receptor expression in islets from db/db mice: S1P3; format: in vivo, mouse; conditions: after FTY720 treatment of db/db mice
Text: FIG. 15. Expression of 4 FTY720-bound S1P receptors in the islets isolated from the db/db mice.
FTY720 is phosphorylated in vivo to form FTY720-P that binds S1P1, S1P3, S1P4, and S1P5 but not S1P2 (25). We determined the expression of these receptors in the islets isolated from the untreated and FTY720-treated db/db mice.

[8] = tested on: pancreatic cancer cells; conditions: concentrations identical to this study (10 mg/kg), reportedly; cited from earlier work
[9] = db/db mice after 6 weeks FTY720 treatment, no staining in untreated

SMILES: CCCCCCCCc1ccc(CCC(N)(CO)CO)cc1 [FTY720, 2-amino-2-[2-(4-octylphenyl)ethyl]propane-1,3-diol]
- weight gain [1]: significantly higher
- glucose-stimulated insulin secretion [2]: does not affect
- Bcl-2 mRNA levels [3]: significantly increased
- Bcl-xL mRNA levels [4]: significantly increased
- insulin-positive cells or small islets in the pancreatic duct area ([5]; FTY720-treated db/db mice, insulin immunostaining): identified
- BrdU incorporation in the pancreatic duct area (beta-cell neogenesis) [5, 9]: BrdU incorporation was observed
- BrdU staining within the islets (beta-cell proliferation) [5, 9]: BrdU-positive cells were easily observed
- PDX-1 expression relative to islets from untreated mice [6]: 6 fold
- S1P3 expression in islets [7]: significantly elevated
- growth, migration, and invasion of pancreatic cancer cells [8]: inhibit
